Patent US10618869B2, “Oligo-benzamide compounds and their use” (The Board of Regents of the University of Texas System, priority 2010, dated 2020)
“Also recorded” adds a separate entry of the source.

Assays:
[1] = system: LNCaP cells; assay: Uptake of fluorescein analogues of D2 by LNCaP cells; format: cell-based; conditions: summary statement
Experimental: FIGS. 14A-C. Effect of chemical conjugation of Fluorescein to D2 at the amino and carboxy terminus (FIG. 14A) on uptake by LnCaP cells at 4 hours (FIG. 14B) and on DHT-induced proliferation of PCa cells (FIG. 14C).
In FIG. 14, two fluorescent analogues of D2 were prepared, one by introducing a fluorescein moiety to the C-terminus of D2 (CF1-D2) and the other by placing it at the N-terminus (CF2-D2).

[2] = system: PCa cells; assay: EGF or LPA-induced proliferation of PCa cells (MTT assay); format: cell-based; conditions: peptidomimetic added 2 hours prior
Experimental: FIG. 11. […] D2 does block DHT-induced proliferation of prostate cancer cells.
(§1) In this experiment, cells were plated (2-10×10^3/well) in 96 well plates and subjected to androgen deprivation for 48 hours with phenol-red free RPMI and 1% charcoal stripped fetal bovine serum (CSF). Cells were then treated with either ethanol, EGF or DHT as a positive control for 48 hours. Peptidomimetics were added 2 hours prior to treatment. Cell proliferation was measured using the MTT colorimetric assay.

[3] = system: erk; assay: erk phosphorylation after serum starvation (western blot, FIG. 16); format: cell-based; conditions: following serum starvation, D1 at higher concentrations (500 nM)
Experimental: FIG. 16. Evidence for utility of higher concentrations of D1 in blocking erk phosphorylation: following serum starvation, cells were treated with either D1 or D2 and assessed for their ability to block erk phosphorylation.
D2, and to a less extent D1, targets a validated target in prostate cancer, has the potential to be an AR-selective modulator, provides a novel mechanism of action, and will likely provide a sustained effect in the context of therapy.

[4] = system: prostate cancer xenografts; assay: Subcutaneous prostate cancer xenografts; format: in vivo, nude mice
Experimental: (§2) FIGS. 10A-E. D2 blocks proliferation of prostate cancer cells in vitro and in vivo (a) Effect of pretreatment with 100 nM of D1 and D2 on DHT-induced proliferation in multiple prostate cancer cell lines in MTT assay. Numbers are normalized to a baseline of 100, which represents the untreated rate of proliferation. (b) Effect of pretreatment with 100 nM of D1 and D2 on DHT-induced proliferation in LNCaPcells on a Cyquant assay. (c) Dose dependent curve of D2 on proliferation of LAPC4 cells. (d) Rescue of DHT induced proliferation by overexpression of PELP1 following suppression of DHT induced proliferation with 100 nM of D2. (e). Effect of direct intratumoral injections of D1 and D2 on the proliferation of prostate cancer xenografts in animal models: Following establishment of subcutaneous xenografts in animal models, daily direct intratumoral injections of D1 and D2 were performed. Bioluminesence imaging was used to track the growth of the tumors and the effect of D1 and D2 quantitated as shown in the graph.
They have shown that this synthetic peptidomimetic D2 is capable of blocking AR-PELP-1 interaction, nuclear translocation of AR, AR mediated genomic signaling as well as DHT-mediated proliferation of prostate cancer cells in vitro. The IC50 of D2 appears to be around 40 nM. […]

[5] = system: DHT-regulated transcripts; assay: DHT-regulated transcripts, Illumina platform, LNCaP cells; format: cell-based; conditions: of the 341 transcripts significantly upregulated by DHT
Experimental: FIG. 8. Effect of D2 on DHT-induced transcription: RNA from LNCaP cells untreated or treated with DHT in the absence and presence of D2 were evaluated by the Illumina platform for DHT-regulated transcripts. […] Expression levels of selected genes are shown in the right panel, including AR-regulated genes and those involved in cell proliferation.
(§3) FIG. 8 confirms these findings by QPCR experiment evaluating the effect of D1 and D2 on DHT-induced TMPRSS and PSA gene expression at the RNA level in LNCaP cells (bottom left panel) and by western blot analyses as evaluated by the effect of D1 and D2 on the expression of PSA, androgen receptor and actin in LAPC4 cells at the protein level. […] Confirmation of these findings were obtained by QPCR and western blot analyses.

[6] = system: AR binding on PSA promoter; assay: ChIP assay of AR binding on PSA promoter; format: cell-based
From the text: FIG. 9. […] This effect of D2 could be rescued by overexpression of AR (bottom left panel) or PELP1 (bottom right panel).
(§4) At the protein level, D2, but not D1, was able to block DHT-induced expression of PSA protein. Again, the suppresion of DHT-induced transcription from an ARE could be overcome by overexpression of either AR or PELP1 ([…]). Overexpression of PELP1 was able to rescue the D2-mediated suppression of DHT-induced transcription nearly back to baseline.

[7] = Storage stability of D2 in DMSO; format: physicochemical; conditions: room temperature and −70° C., storage 60 days
[8] = system: AR-negative PCa cell lines such as DU145 or PC3; assay: DHT-induced proliferation of AR-negative PCa cell lines; format: cell-based
Experimental: as §2
(§5) The importance of PELP1 and AR interaction on DHT-mediated proliferation of prostate cancer cells were confirmed using rescue experiments, where D2 suppression of DHT-mediated proliferation was overcome by overexpression of PELP1 in LNCaP PCa cells.

[9] = system: PSA protein; assay: DHT-induced PSA protein expression (western blot); format: cell-based; conditions: protein level
From the text: as §3, §4

[10] = system: PSA and TMPRSS promoter; assay: QPCR of PSA and TMPRSS, DHT-induced; format: cell-based
From the text: as §3, §4

[11] = system: PCa cell lines that contain AR; assay: DHT-induced proliferation of prostate cancer cells (MTT assay); format: cell-based
Experimental: as §2, §5, §1
Cells were plated (2-10×10^3/well) in 96-well plates and subjected to androgen deprivation for 48 hours with phenol-red free RPMI and 1% charcoal stripped fetal bovine serum (CSF). Cells were then treated with either ethanol or DHT as a positive control for 48 hours Peptidomimetics were added 2 hours prior to treatment. Cell proliferation was measured using the MTT colorimetric assay.

## COC(=O)c1ccc(NC(=O)c2ccc([N+](=O)[O-])c(OCC(C)C)c2)c(OCC(C)C)c1 [D2]
[1]
  entry into prostate cancer cells: enters the prostate cancer cells
[2]
  EGF or LPA-induced proliferation of PCa cells: no effect; also recorded: does not affect
[3]
  erk activation / phosphorylation: blocks at lower concentrations
[4]; nude mice, intratumoral or intraperitoneal administration
  growth of prostate cancer cells implanted subcutaneously: significantly abrogate the growth
[4]; protein extracts of tumors after daily intratumoral injections
  AR-PELP1 complex formation in xenograft tumors: biologically active in blocking AR-PELP1 interaction; also recorded: able to block
[5]
  DHT-upregulated genes reduced back to baseline: 219 genes
[6]
  DHT-induced AR binding on PSA promoter (ChIP): blocked DHT-induced AR binding; also recorded: blocked AR binding to its cognate DNA sequence
[7]
  stability in DMSO: stable in DMSO
[8]
  DHT-induced proliferation of AR-negative PCa cell lines: but not AR-negative PCa cell lines
[9]
  DHT-induced expression of PSA protein: able to block
[10]
  DHT-induced transcription from ARE-driven promoters at RNA level (QPCR): block DHT-induced transcription from ARE-driven promoters was confirmed
[11]; DHT-induced proliferation, MTT assay, structure-function series
  activity on the proliferation of prostate cancer cells (FIGS. 17, 19A-N): good activity
[11]; LNCaP, LAPC4, C4-2, RWPE-1, CWR22v1, VCaP, MDAPCa 2b, pretreatment (100 nM in FIG. 10)
  DHT-induced proliferation of PCa cells: prevented; also recorded: does block
[11]; MTT assays, in vitro, read-out: IC50, DHT-mediated proliferation of PCa cells
  IC50: ~40 nM
